The values below come from ChEMBL document CHEMBL3390836, “Mannich- and LedererManasse-based analogues of the natural product S-(+)-curcuphenol as cancer proliferation and migration inhibitors” (Medchemcomm, 2012).

Some results are limits rather than exact numbers.

Assay [1] in a line: Cytotoxicity against human UACC257 cells assessed as cell growth at 10^-8 M after 48 hrs by SRB assay relative to control. Type of assay: functional. Conditions: UACC-257, 48 h, read-out: Activity. (Sulforhodamine B stains cellular protein and so reports cell mass.)
Assay [2] relates to CCRF-CEM. In words: Cytotoxicity against human CCRF-CEM cells assessed as cell growth at 10^-6 M after 48 hrs by SRB assay relative to control. Type of assay: functional. Conditions: read-out: Activity.
Assay [3] relates to M14. In words: Cytotoxicity against human M14 cells assessed as cell growth at 10^-4 M after 48 hrs by SRB assay relative to control. It is filed as functional. Conditions: M14, 48 h, read-out: Activity.
In assay [4] the test system is CCRF-CEM. In words: Cytotoxicity against human CCRF-CEM cells after 48 hrs by SRB assay. Type of assay: functional. Conditions: read-out: LC50 (the source's name).
The test system of assay [5] is M14. In words: Cytotoxicity against human M14 cells assessed as cell growth at 10^-8 M after 48 hrs by SRB assay relative to control. It is filed as functional. Conditions: M14, 48 h, read-out: Activity.
In assay [6] the test system is RPMI-8226. The experiment in a line: Cytotoxicity against human RPMI8226 cells assessed as cell growth at 10^-8 M after 48 hrs by SRB assay relative to control. Conditions: RPMI-8226, 48 h, read-out: Activity. It is filed as functional.
A short description of assay [7]: Cytotoxicity against human UACC257 cells assessed as cell growth at 10^-7 M after 48 hrs by SRB assay relative to control. Type of assay: functional. Conditions: UACC-257, 48 h, read-out: Activity.
Assay [8] has as its system M14. In words: Cytotoxicity against human M14 cells assessed as cell growth at 10^-7 M after 48 hrs by SRB assay relative to control. It is filed as functional. Conditions: M14, 48 h, read-out: Activity.
Assay [9] relates to M14. The experiment in a line: Cytotoxicity against human M14 cells assessed as cell growth at 10^-6 M after 48 hrs by SRB assay relative to control. It is filed as functional. Conditions: M14, 48 h, read-out: Activity.
Assay [10] is described as follows: Cytotoxicity against human UACC257 cells assessed as cell growth at 10^-4 M after 48 hrs by SRB assay relative to control. Type of assay: functional. Conditions: UACC-257, 48 h, read-out: Activity.
For assay [11], the system named is M14. In words: Cytotoxicity against human M14 cells after 48 hrs by SRB assay. Conditions: M14, 48 h; for CC50: read-out: LC50 (the source's name). It is filed as functional.
The test system of assay [12] is CCRF-CEM. The experiment in a line: Cytotoxicity against human CCRF-CEM cells assessed as cell growth at 10^-7 M after 48 hrs by SRB assay relative to control. Type of assay: functional. Conditions: read-out: Activity.
Assay [13] has as its system RPMI-8226. In words: Cytotoxicity against human RPMI8226 cells assessed as cell growth at 10^-7 M after 48 hrs by SRB assay relative to control. It is filed as functional. Conditions: RPMI-8226, 48 h, read-out: Activity.
Assay [14] relates to CCRF-CEM. In words: Cytotoxicity against human CCRF-CEM cells assessed as cell growth at 10^-8 M after 48 hrs by SRB assay relative to control. Type of assay: functional. Conditions: read-out: Activity.
Assay [15] relates to RPMI-8226. The experiment in a line: Cytotoxicity against human RPMI8226 cells assessed as cell growth at 10^-4 M after 48 hrs by SRB assay relative to control. It is filed as functional. Conditions: RPMI-8226, 48 h, read-out: Activity.
Assay [16] is described as follows: Cytotoxicity against human UACC257 cells assessed as cell growth at 10^-6 M after 48 hrs by SRB assay relative to control. It is filed as functional. Conditions: UACC-257, 48 h, read-out: Activity.
In assay [17] the test system is RPMI-8226. In words: Cytotoxicity against human RPMI8226 cells after 48 hrs by SRB assay. Type of assay: functional. Conditions: RPMI-8226, 48 h; for CC50: read-out: LC50 (the source's name).
In assay [18] the test system is CCRF-CEM. The experiment in a line: Cytotoxicity against human CCRF-CEM cells assessed as cell growth at 10^-4 M after 48 hrs by SRB assay relative to control. Type of assay: functional. Conditions: read-out: Activity.
A short description of assay [19]: Cytotoxicity against human UACC257 cells after 48 hrs by SRB assay. Type of assay: functional. Conditions: UACC-257, 48 h.
In assay [20] the test system is SR. The experiment in a line: Cytotoxicity against human SR cells assessed as cell growth at 10^-7 M after 48 hrs by SRB assay relative to control. It is filed as functional. Conditions: read-out: Activity.
The subject of assay [21] is NCI-H522. The experiment in a line: Cytotoxicity against human NCI-H522 cells after 48 hrs by SRB assay. Type of assay: functional. Conditions: NCI-H522, 48 h; for CC50: read-out: LC50 (the source's name).
The test system of assay [22] is SR. In words: Cytotoxicity against human SR cells after 48 hrs by SRB assay. It is filed as functional. Conditions: for CC50: read-out: LC50 (the source's name).
In another assay the test system is BT-549. The experiment in a line: Cytotoxicity against human BT549 cells assessed as cell growth at 10^-4 M after 48 hrs by SRB assay relative to control. Type of assay: functional. Conditions: BT-549, 48 h, read-out: Activity.
Assay [23] is described as follows: Cytotoxicity against human Hs 578T cells assessed as cell growth at 10^-7 M after 48 hrs by SRB assay relative to control. It is filed as functional. Conditions: read-out: Activity.
For the next assay, the system named is MOLT-4. In words: Cytotoxicity against human MOLT4 cells assessed as cell growth at 10^-4 M after 48 hrs by SRB assay relative to control. Type of assay: functional. Conditions: MOLT-4, 48 h, read-out: Activity.
In assay [24] the test system is SR. In words: Cytotoxicity against human SR cells assessed as cell growth at 10^-4 M after 48 hrs by SRB assay relative to control. It is filed as functional. Conditions: read-out: Activity.
A further assay deals with DU-145. In words: Cytotoxicity against human DU145 cells after 48 hrs by SRB assay. It is filed as functional. Conditions: DU-145, 48 h.
The subject of assay [25] is NCI-H522. In words: Cytotoxicity against human NCI-H522 cells assessed as cell growth at 10^-7 M after 48 hrs by SRB assay relative to control. Type of assay: functional. Conditions: NCI-H522, 48 h, read-out: Activity.
Assay [26] has as its system NCI-H522. In words: Cytotoxicity against human NCI-H522 cells assessed as cell growth at 10^-8 M after 48 hrs by SRB assay relative to control. Conditions: NCI-H522, 48 h, read-out: Activity. It is filed as functional.
Assay [27] can be described thus: Cytotoxicity against human PC3 cells assessed as cell growth at 10^-7 M after 48 hrs by SRB assay relative to control. Type of assay: functional. Conditions: PC-3, 48 h, read-out: Activity.
For assay [28], the system named is NCI-H522. The experiment in a line: Cytotoxicity against human NCI-H522 cells assessed as cell growth at 10^-4 M after 48 hrs by SRB assay relative to control. It is filed as functional. Conditions: NCI-H522, 48 h, read-out: Activity.
The test system of assay [29] is NCI-H522. In words: Cytotoxicity against human NCI-H522 cells assessed as cell growth at 10^-6 M after 48 hrs by SRB assay relative to control. Conditions: NCI-H522, 48 h, read-out: Activity. Type of assay: functional.
In assay [30] the target is Proto-oncogene tyrosine-protein kinase Src (Homo sapiens, UniProt P12931). The experiment in a line: Inhibition of Src (unknown origin).
Sequence of Proto-oncogene tyrosine-protein kinase Src (P12931 2-536 limits assumed): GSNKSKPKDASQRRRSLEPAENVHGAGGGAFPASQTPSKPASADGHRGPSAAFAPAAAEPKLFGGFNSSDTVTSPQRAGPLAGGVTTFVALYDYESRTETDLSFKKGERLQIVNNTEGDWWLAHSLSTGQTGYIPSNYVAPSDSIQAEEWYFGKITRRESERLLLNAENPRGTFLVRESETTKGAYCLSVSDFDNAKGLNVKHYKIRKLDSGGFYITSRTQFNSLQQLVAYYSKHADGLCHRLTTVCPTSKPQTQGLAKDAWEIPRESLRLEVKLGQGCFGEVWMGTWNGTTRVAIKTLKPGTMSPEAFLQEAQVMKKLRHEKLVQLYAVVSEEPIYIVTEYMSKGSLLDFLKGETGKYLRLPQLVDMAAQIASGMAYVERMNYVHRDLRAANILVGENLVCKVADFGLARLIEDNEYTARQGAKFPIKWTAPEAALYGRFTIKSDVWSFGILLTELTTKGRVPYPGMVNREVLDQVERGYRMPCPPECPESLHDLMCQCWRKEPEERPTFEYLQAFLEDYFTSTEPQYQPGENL

The term GI50 denotes the concentration giving 50% growth inhibition. Low readings indicate more potent growth inhibition, high ones less potent growth inhibition. As usually defined, the TGI is the concentration giving total growth inhibition. Low values mean greater sensitivity of the cells, high ones lower sensitivity of the cells. In the case of `COc1ccc(CCN2COc3c([C@@H](C)CCC=C(C)C)ccc(C)c3C2)cc1OC`, the growth at 0.01 µM was 80% in [1], 95% with M14 [5], 93% with RPMI-8226 [6] and 96% in the assay with CCRF-CEM [14]. The growth at 1 µM with CCRF-CEM [2] came to 93%; in the assay with M14 [9], 92%; in assay [16], 91%. Besides, the growth at 100 µM in the assay on M14 [3] was -100%; in assay [10], -84%; with RPMI-8226 [15] it was -28%; in the assay with CCRF-CEM [18] it was -29%. Also, the CC50 in the assay on CCRF-CEM [4] was over 100 µM; in the assay with M14 [11], 5.97 µM; with RPMI-8226 [17], over 100 µM; in assay [19] (read-out: LC50 (the source's name)), 40.8 µM. Besides, the growth at 0.1 µM in assay [7] amounted to 91%; in the assay on M14 [8], 97%; in the assay on CCRF-CEM [12] it was 98%; with RPMI-8226 [13], 93%. Further, the GI50 in the assay with M14 [11] amounted to 1.69 µM; in the assay on RPMI-8226 [17] it was 2.09 µM; in [19], 0.0283 µM. For the same molecule, the figures for the TGI (in the assay with M14 [11]; in the assay on RPMI-8226 [17]; in assay [19]) were 3.18 µM, 7.67 µM and 10.9 µM, respectively.
Broadly, the LC50 is the concentration lethal to half of the exposed cells or organisms. Turning to `CC(C)=CCC[C@H](C)c1ccc(C)c2c1OCN(CC1CCNCC1)C2`, the growth at 0.1 µM in the assay with SR [20] worked out at 98%; in assay [23], 102%; with M14 [8], 99%; in the assay on NCI-H522 [25], 88%; in [27], 100%; in the assay with RPMI-8226 [13] it was 102%. For the same molecule, the GI50 was found to be 13.5 µM with NCI-H522 [21]; 2.79 µM in the assay with SR [22]; 16.4 µM in the assay with DU-145; 10.2 µM with M14 [11]; 7.25 µM with RPMI-8226 [17]. For the same molecule, the concentration for total growth inhibition (TGI) turned out to be 28.6 µM in the assay with NCI-H522 [21]; 9.83 µM in the assay on SR [22]; 32.2 µM with DU-145; 24.5 µM in the assay on M14 [11]; 32.6 µM in the assay on RPMI-8226 [17]. Also, the CC50 in the assay with NCI-H522 [21] was 60.4 µM; in the assay with SR [22] it was over 100 µM; with M14 [11], 58.9 µM; in the assay with RPMI-8226 [17], over 100 µM. The growth at 100 µM with M14 [3] is -80%; with BT-549, -49%; in the assay with MOLT-4, -39%; with SR [24] it was -42%; in the assay with RPMI-8226 [15], -38%; with NCI-H522 [28], -84%. The LC50 in the assay with DU-145 amounted to 63.2 µM. Besides, the results for the growth at 0.01 µM in the assay on M14 [5], in the assay on RPMI-8226 [6] and in the assay with NCI-H522 [26] were 96%, 99% and 87%, respectively. Moreover, the growth at 1 µM in the assay with M14 [9] is 114%; in the assay with NCI-H522 [29], 97%.
Take `CC(C)=CCC[C@H](C)c1ccc(C)c(CNCC2CCNCC2)c1O`: the growth at 0.1 µM with SR [20] is 84%; in assay [23] it was 91%; in assay [7], 95%; in the assay with NCI-H522 [25], 96%; in assay [27] it was 99%. The figures for the growth at 0.01 µM (in assay [1]; with NCI-H522 [26]) were 93% and 98%, respectively. The GI50 is 8.22 µM in the assay with NCI-H522 [21], 3.71 µM in the assay on SR [22] and 16.4 µM in the assay with DU-145. Also, the TGI is over 25 µM in the assay with NCI-H522 [21], 9.67 µM in the assay with SR [22] and over 25 µM with DU-145. In addition, the results for the CC50 with NCI-H522 [21], in the assay on SR [22] and in the assay on CCRF-CEM [4] were over 25 µM, over 25 µM and 1.64 µM, respectively. The growth at 100 µM with BT-549 was 22%; in the assay on MOLT-4 it was -22%; with SR [24], -50%; in assay [10] it was -8.3%; with NCI-H522 [28], 9%. Also, the LC50 with DU-145 is over 25 µM. For the same molecule, the growth at 1 µM in assay [16] was determined as 80%; in the assay with NCI-H522 [29] it was 104%.
The term IC50 denotes the concentration needed to halve the response being measured. `CC(C)=CCC[C@H](C)c1ccc(C)cc1O` displayed an IC50 in [30] of 35.8 µM.
